Results reported in PMC6092981 (Bioinorganic Chemistry and Applications, 2018).
Counter-ions that a name gives are not always drawn. Where a SMILES comes first, the peptide text is derived from it. Where no end group is shown, it is not given here. The star is where a group is joined. Cbz = O=C(OCc1ccccc1)*; CH2F = FC*

Legend:
[1] = tested on: Jurkat cells; experiment: MTT assay of Jurkat cells in the presence of caspase, necroptosis and necrosis inhibitors; format: cell-based, human; conditions: Z-VAD-FMK 15 µM, 24 h, 37°C; for inhibition of cell death induced by 5: necrostatin-1 30 µM, IM-54 10 µM, 1 h pre-incubation, 5 75 µM, MTT
Experimental: Jurkat cells (1.0 × 10^5 cells/mL) were incubated in 10% FCS RPMI 1640 medium (MTG-free) containing a solution Z-VAD-fmk (15 µM)/necrostatin-1 (30 µM)/IM-54 (10 µM)/(under 5% CO2 at 37°C for 1 h in 96-well plates (BD Falcon). Then, Ir complexes (75 µM) were added and incubated under 5% CO2 at 37°C for 24 h, and then 0.5% MTT reagent in PBS buffer (10 µL) was added to the cells and incubated under 5% CO2 at 37°C for 4 h. A formazan lysis solution (10% SDS in 0.01 N HCl) (100 µL) was added, and the resulting solution incubated overnight under the same conditions, followed by measurement of absorbance at 570 nm with a microplate reader (Bio-Rad).

[2] = tested on: Jurkat cells; experiment: PI staining microscopy of Jurkat cells with 5 in the presence of inhibitors; format: cell-based, human; conditions: nicardipine 50 µM, verapamil 20 µM, 37°C 1 h, then 5 (35 µM) 24 h
Experimental: The cells were then washed twice with ice-cold PBS containing 0.5% FCS and 0.1% NaN3 and incubated with PI in PBS at room temperature for 10–15 min.

[3] = biological target: DR5 (immobilised on the QCM sensor chip) (UniProt O14763 56-440); experiment: 27 MHz quartz crystal microbalance (QCM); DR5 immobilised by EDC/NHS on a 3,3'-dithiodipropionic acid layer on the Au electrode, blocked with ethanolamine; analytes added in PBS, 25°C; apparent constants from the decrease in frequency, 1:1 complexation assumed, Kd = 1/Kapp; conditions: both partners purified

Question: How did the “inhibition of cell death induced by 5” value [1] turn out when `CN1C(=O)C(Cc2c[nH]c3ccccc23)NC1=S` (stereo not shown) [Necrostatin-1] was run?
Answer: The value was “negligibly inhibited”.

Question: How did the “inhibition of cell death induced by 5” value [1] turn out when `CCCCCNC1=C(c2cn(C)c3ccccc23)C(=O)N(C)C1=O` [IM-54] was run?
Answer: Its value is “negligibly inhibited”.

Question: With `COC(=O)C1=C(C)NC(C)=C(C(=O)OCCN(C)Cc2ccccc2)C1c1cccc([N+](=O)[O-])c1` (stereo not shown) [nicardipine, nicardipine hydrochloride] as the molecule, how does the “inhibition of cell death induced by 5” value [2] read?
Answer: Its value is “considerably inhibited”.

Question: How did the “inhibition of cell death induced by 5” value [1] turn out when `COC(=O)C[C@H](NC(=O)[C@H](C)NC(=O)[C@@H](NC(=O)OCc1ccccc1)C(C)C)C(=O)CF` [Z-VAD-FMK, Z-Val-Ala-Asp(OMe) fluoromethylketone] (Cbz-Val-Ala-Asp(OMe)-CH2F) was run?
Answer: The value was “negligibly inhibited”.

Question: And the “inhibition of TRAIL-induced cell death” value ([1]; TRAIL 150 ng/mL, MTT and flow cytometry (PI))?
Answer: The value was “almost completely”.

B1: Ir complex 2c (contains a KKGG peptide) (other)
peptide: KKGG
modifications: also: joined to a cyclometalated Ir(III) complex
notes: cationic peptide H2N-KKGG- on the Ir complex
Question: How did the Ka [3] turn out when B1 was run?
Answer: Its Ka is under 10000 M⁻¹.

Question: What about the Kd [3] of the same molecule?
Answer: The Kd was over 100 µM.
